Data reported in patent US20060069132A1, “Azolecarboxamide herbicides” (priority 2004, published 2006).

Columns and labels:
[1] = system: morningglory; test: Test B pre-/postemergence herbicide test; type: in vivo, Ipomoea coccinea; conditions: for Morningglory plant response rating: postemergence, visual rating, scale 0 (no effect) to 100 (complete control)
In short: (§1)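 Flooded paddy rice and barnyardgrass were treated at the 2-leaf stage; upland plantings received compound either on sown seed or on 1- to 4-leaf seedlings. All were kept 13–15 days in a greenhouse and scored visually, 0–100, relative to untreated plants.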

[2] = system: rice; test: Test B flooded paddy test; type: in vivo, Oryza sativa; conditions: 1000 g ai/ha, visual rating, scale 0 to 100 (0 no effect, 100 complete control), 13 to 15 days
In short: (§2)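 After treating 2-leaf paddy plants or 2–18 cm postemergence plants (1 to 4 leaves) with formulated chemical, researchers kept them in a greenhouse for 13–15 days. Effects were judged visually versus controls: 0 indicates none, 100 total control.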

[3] = system: barnyardgrass; test: Test B pre-/postemergence herbicide test; type: in vivo, Echinochloa crus-galli; conditions: for Barnyardgrass plant response rating: postemergence, visual rating, scale 0 (no effect) to 100 (complete control)
In short: as §1

[4] = system: barnyardgrass; test: Test C flooded paddy test; type: in vivo, Echinochloa crus-galli
In short: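 After a postemergence application at 1 to 4 leaves (plants 2–18 cm high), or at 2 leaves for barnyardgrass in flooded paddy, plants stayed in the greenhouse for 12 to 14 days. Damage was then judged visually relative to control plants, with 100 indicating complete control.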

[5] = system: rice; test: Test C flooded paddy test; type: in vivo, Oryza sativa
In short: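 Postemergence sprays applied to plants 2 to 18 cm tall (1- to 4-leaf stage); paddy species grown to 2-leaf stage under flooding. After 12 to 14 days in greenhouse, visual rating versus untreated controls on 0–100 scale (0 no effect, 100 complete control).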

[6] = system: velvetleaf; test: Test B pre-/postemergence herbicide test; type: in vivo, Abutilon theophrasti; conditions: for Velvetleaf plant response rating: postemergence, visual rating, scale 0 (no effect) to 100 (complete control)
In short: as §1

[7] = system: wheat; test: Test B postemergence herbicide test; type: in vivo, Triticum aestivum; parameters: key to Wheat plant response rating: 0 = no effect, 100 = complete control; conditions: postemergence, visual rating, scale 0 (no effect) to 100 (complete control)
In short: (§3)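 Treated at 2-leaf (paddy) or 1–4-leaf, 2–18 cm (postemergence); greenhouse 13–15 d; visual score vs control, 0 none to 100 complete control; dash = not tested.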

[8] = system: wild oat; test: Test B postemergence herbicide test; type: in vivo, Avena fatua; conditions: postemergence, visual rating, scale 0 (no effect) to 100 (complete control)
In short: as §3

[9] = system: rice; test: Test B pre-/postemergence herbicide test; type: in vivo, Oryza sativa; conditions: preemergence
In short: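 Evaluation is visual, comparing treated with control plants on a scale where 0 means no effect and 100 means full control. Treatments were preemergence, or postemergence on seedlings 2–18 cm tall, and held 13–15 days in the greenhouse.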

[10] = system: pigweed; test: Test B pre-/postemergence herbicide test; type: in vivo, Amaranthus retroflexus; conditions: for Pigweed plant response rating: postemergence, visual rating, scale 0 (no effect) to 100 (complete control)
In short: as §1

[11] = system: lambsquarters; test: Test B pre-/postemergence herbicide test; type: in vivo, Chenopodium album; conditions: for Lambsquarters plant response rating: postemergence, visual rating, scale 0 (no effect) to 100 (complete control)
In short: as §1

[12] = system: small flower umbrella sedge; test: Test B flooded paddy test; type: in vivo, Cyperus difformis; conditions: 1000 g ai/ha, visual rating, scale 0 to 100 (0 no effect, 100 complete control), 13 to 15 days
In short: as §2

[13] = system: Surinam grass; test: Test B pre-/postemergence herbicide test; type: in vivo, Urochloa decumbens; conditions: for Surinam Grass plant response rating: postemergence, visual rating, scale 0 (no effect) to 100 (complete control)
In short: as §1

[14] = system: corn; test: Test B pre-/postemergence herbicide test; type: in vivo, Zea mays; conditions: for Corn plant response rating: postemergence, visual rating, scale 0 (no effect) to 100 (complete control)
In short: as §1

[15] = system: smallflower umbrella sedge; test: Test C flooded paddy test; type: in vivo, Cyperus difformis
[16] = system: large crabgrass; test: Test B pre-/postemergence herbicide test; type: in vivo, Digitaria sanguinalis; conditions: for Crabgrass, Large plant response rating: postemergence, visual rating, scale 0 (no effect) to 100 (complete control)
In short: as §1

[17] = system: cocklebur; test: Test B pre-/postemergence herbicide test; type: in vivo, Xanthium strumarium; conditions: for Cocklebur plant response rating: postemergence, visual rating, scale 0 (no effect) to 100 (complete control)
In short: as §1

[18] = system: ducksalad; test: Test C flooded paddy test; type: in vivo, Heteranthera limosa
[19] = system: barnyardgrass; test: Test B flooded paddy test; type: in vivo, Echinochloa crus-galli; conditions: 1000 g ai/ha, visual rating, scale 0 to 100 (0 no effect, 100 complete control), 13 to 15 days
In short: as §2

[20] = system: blackgrass; test: Test B postemergence herbicide test; type: in vivo, Alopecurus myosuroides; conditions: postemergence, visual rating, scale 0 (no effect) to 100 (complete control)
In short: as §2

[21] = system: giant foxtail; test: Test B pre-/postemergence herbicide test; type: in vivo, Setaria faberi; conditions: for Foxtail, Giant plant response rating: postemergence, visual rating, scale 0 (no effect) to 100 (complete control)
In short: as §1

[22] = system: ducksalad; test: Test B flooded paddy test; type: in vivo, Heteranthera limosa; conditions: 1000 g ai/ha, visual rating, scale 0 to 100 (0 no effect, 100 complete control), 13 to 15 days
In short: as §2

[23] = 125 g ai/ha, 0 = no effect, 100 = complete control, preemergence
[24] = 500 g ai/ha, visual rating 0-100, 0 no effect, 100 complete control, preemergence
[25] = 62 g ai/ha, scale 0 to 100 (0 no effect, 100 complete control)
[26] = 250 g ai/ha, scale of 0 to 100, 0 is no effect, 100 is complete control
[27] = 500 g ai/ha, visual rating after 12 to 14 days, scale 0 to 100 (0 no effect, 100 complete control)
[28] = 125 g ai/ha, scale 0 to 100 (0 no effect, 100 complete control)

CCNC(=O)c1cccc(NC(=O)c2cn(C(C)(C)C)nc2C)c1 [Compound 183]
Morningglory plant response rating (0 to 100 scale) [1, 23]: 10 | Plant response rating, Morningglory [1, 24]: 10 | Morningglory plant response rating ([1]; 125 g ai/ha): 60 | Morningglory plant response rating ([1]; 500 g ai/ha): 70 | Rice plant response rating [2]: 0 | Barnyardgrass plant response rating (0 to 100 scale) [3, 23]: 20 | Plant response rating, Barnyardgrass [3, 24]: 70 | Barnyardgrass plant response rating ([3]; 125 g ai/ha): 0 | Barnyardgrass plant response rating ([3]; 500 g ai/ha): 0 | Barnyardgrass plant response rating [4, 25]: 0 | Barnyardgrass plant response rating ([4]; 125 g ai/ha, scale of 0 to 100, 0 is no effect, 100 is complete control): 0 | Barnyardgrass plant response rating [4, 26]: 0 | Plant response rating, Barnyardgrass [4, 27]: 0 | Rice plant response rating [5, 25]: 0 | Rice plant response rating [5, 28]: 0 | Rice plant response rating [5, 26]: 0 | Plant response rating, Rice [5, 27]: 0 | Velvetleaf plant response rating (0 to 100 scale) [6, 23]: 10 | Plant response rating, Velvetleaf [6, 24]: 50 | Velvetleaf plant response rating ([6]; 125 g ai/ha): 40 | Velvetleaf plant response rating ([6]; 500 g ai/ha): 60 | Wheat plant response rating ([7]; 125 g ai/ha): 0 | Wheat plant response rating ([7]; 500 g ai/ha): 0 | Oat, Wild plant response rating ([8]; 125 g ai/ha): 10 | Oat, Wild plant response rating ([8]; 500 g ai/ha): 20 | Rice plant response rating (0 to 100 scale) ([9]; 125 g ai/ha, 0 = no effect, 100 = complete control): 0 | Plant response rating, Rice ([9]; 500 g ai/ha, visual rating 0-100, 0 no effect, 100 complete control): 80 | Pigweed plant response rating (0 to 100 scale) [10, 23]: 100 | Plant response rating, Pigweed [10, 24]: 100 | Pigweed plant response rating ([10]; 125 g ai/ha): 70 | Pigweed plant response rating ([10]; 500 g ai/ha): 80 | Lambsquarters plant response rating (0 to 100 scale) [11, 23]: 50 | Plant response rating, Lambsquarters [11, 24]: 100 | Lambsquarters plant response rating ([11]; 125 g ai/ha): 70 | Lambsquarters plant response rating ([11]; 500 g ai/ha): 80 | Sedge, Umbrella plant response rating [12]: 80 | Surinam Grass plant response rating (0 to 100 scale) [13, 23]: 20 | Plant response rating, Surinam Grass [13, 24]: 50 | Surinam Grass plant response rating ([13]; 125 g ai/ha): 0 | Surinam Grass plant response rating ([13]; 500 g ai/ha): 20 | Corn plant response rating (0 to 100 scale) [14, 23]: 0 | Plant response rating, Corn [14, 24]: 0 | Corn plant response rating ([14]; 125 g ai/ha): 20 | Corn plant response rating ([14]; 500 g ai/ha): 20 | Sedge, Umbrella plant response rating [15, 25]: 0 | Sedge, Umbrella plant response rating [15, 28]: 0 | Sedge, Umbrella plant response rating [15, 26]: 10 | Plant response rating, Sedge, Umbrella [15, 27]: 50 | Crabgrass, Large plant response rating (0 to 100 scale) [16, 23]: 10 | Plant response rating, Crabgrass, Large [16, 24]: 90 | Crabgrass, Large plant response rating ([16]; 125 g ai/ha): 20 | Crabgrass, Large plant response rating ([16]; 500 g ai/ha): 30 | Cocklebur plant response rating (0 to 100 scale) [17, 23]: 0 | Plant response rating, Cocklebur [17, 24]: 0 | Cocklebur plant response rating ([17]; 125 g ai/ha): 50 | Cocklebur plant response rating ([17]; 500 g ai/ha): 90 | Ducksalad plant response rating [18, 25]: 0 | Ducksalad plant response rating [18, 28]: 0 | Ducksalad plant response rating [18, 26]: 10 | Plant response rating, Ducksalad [18, 27]: 20 | Barnyardgrass plant response rating [19]: 60 | Blackgrass plant response rating ([20]; 125 g ai/ha): 0 | Blackgrass plant response rating ([20]; 500 g ai/ha): 10 | Foxtail, Giant plant response rating (0 to 100 scale) [21, 23]: 0 | Plant response rating, Foxtail, Giant [21, 24]: 80 | Foxtail, Giant plant response rating ([21]; 125 g ai/ha): 20 | Foxtail, Giant plant response rating ([21]; 500 g ai/ha): 30 | Ducksalad plant response rating [22]: 70
